Converted amounts (≈) assume the structure as drawn.
Test system: Staphylococcus aureus (Isolate ID ATCC 29213)
Test: Bacterial assay: MIC by broth microdilution or agar dilution (CLSI), S. aureus ATCC 29213
Type: cell-based
Details: S. aureus (ATCC29213)
Method in brief: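 MICs by CLSI broth microdilution or agar dilution against S. aureus ATCC 29213 and its FtsZ-G196A mutant. Values reported as ranges: A ≤0.25 μg/mL, B >0.25–1.0, C >1.0–16, D >16 μg/mL.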

Row | SMILES | S. aureus MIC (μg/mL) Activity Range
1 | NC(=O)c1c(F)ccc(OC(COC(=O)NCc2ccccn2)c2nc(-c3ccc(C(F)(F)F)cc3)c(Br)o2)c1F (stereo not shown) [Compound 165, 2-(5-bromo-4-(4-(trifluoromethyl)phenyl)oazol-2-yl)-2-(3-carbamoyl-2,4-difluorophenoxy)ethyl (pyridin-2-ylmethyl)carbamate] | B (activity>0.25 μg/mL-1.0 μg/mL)

Same assay, conditions: Staphylococcus aureus, ATCC29213, read-out: S. aureus MIC (μg/mL) Activity Range, S. aureus (ATCC29213)

Row | SMILES | MIC [µg/mL]
2 | CCCc1nc(C(CO)Oc2ccc(F)c(C(N)=O)c2F)oc1Br (stereo not shown) [Compound 221, 3-(1-(5-bromo-4-propyloxazol-2-yl)-2-hydroxyethoxy)-2,6-difluorobenzamide] | 1 to 16 (≈ 2.47 to 39.5 µM)
3 | C=CCc1oc(C(CCC)Oc2ccc(F)c(C(N)=O)c2F)nc1-c1ccc(Cl)cc1 (stereo not shown) [Compound 28] | 1 to 16 (≈ 2.24 to 35.8 µM)
4 | Cc1nc(-c2nc(C(CO)Oc3ccc(F)c(C(N)=O)c3F)oc2Br)sc1C (stereo not shown) [Compound 240, 3-(1-(5-bromo-4-(4,5-dimethylthiazol-2-yl)oxazol-2-yl)-2-hydroxyethoxy)-2,6-difluorobenzamide] | > 16
5 | CCOC(=O)C(CC(Oc1ccc(F)c(C(N)=O)c1F)c1nc(-c2ccc(C(F)(F)F)cc2)c(Br)o1)C(=O)OCC (stereo not shown) [Compound 119, diethyl 2-(2-(5-bromo-4-(4-(trifluoromethyl)phenyl)oxazol-2-yl)-2-(3-carbamoyl-2,4-difluorophenoxy)ethyl)malonate] | > 16
6 | NC(=O)c1c(F)ccc(OC(CNC(=O)c2ccccn2)c2nc(-c3ccc(C(F)(F)F)cc3)c(Br)o2)c1F (stereo not shown) [Compound 296, N-(2-(5-bromo-4-(4-(trifluoromethyl)phenyl)oxazol-2-yl)-2-(3-carbamoyl-2,4-difluorophenoxy)ethyl)picolinamide] | < 0.25
7 | CCOC(=O)CNC(=O)OCC(Oc1ccc(F)c(C(N)=O)c1F)c1nc(-c2ccc(C(F)(F)F)cc2)c(Br)o1 (stereo not shown) [Compound 140, ethyl 2-(((2-(5-bromo-4-(4-(trifluoromethyl)phenyl)oxazol-2-yl)-2-(3-carbamoyl-2,4-difluorophenoxy)ethoxy)carbonyl)amino)acetate] | 0.25 to 1 (≈ 0.393 to 1.57 µM)
8 | CCOC(=O)COCC(Oc1ccc(F)c(C(N)=O)c1F)c1nc(-c2ccc(C(F)(F)F)cc2)c(Br)o1 (stereo not shown) [Compound 84, ethyl 2-(2-(5-bromo-4-(4-(trifluoromethyl)phenyl)oxazol-2-yl)-2-(3-carbamoyl-2,4-difluorophenoxy)ethoxy)acetate] | 0.25 to 1 (≈ 0.421 to 1.69 µM)
9 | CCC(Oc1ccc(F)c(C(N)=O)c1F)c1nc(-c2ccc(Cl)cc2)c(Br)o1 (stereo not shown) [Compound 18, 3-(1-(5-bromo-4-(4-chlorophenyl)oxazol-2-yl)propoxy)-2,6-difluorobenzamide] | 1 to 16 (≈ 2.12 to 33.9 µM)
10 | CSc1oc(C(CO)Oc2ccc(F)c(C(N)=O)c2F)nc1-c1ccc(C(F)(F)F)cc1 (stereo not shown) [Compound 271, 2,6-difluoro-3-(2-hydroxy-1-(5-(methylthio)-4-(4-(trifluoromethyl)phenyl)oxazol-2-yl)ethoxy)benzamide] | 0.25 to 1 (≈ 0.527 to 2.11 µM)
11 | Cn1cc(CNC(=O)OCC(Oc2ccc(F)c(C(N)=O)c2F)c2nc(-c3ccc(C(F)(F)F)cc3)c(Br)o2)cn1 (stereo not shown) [Compound 198, 2-(5-bromo-4-(4-(trifluoromethyl)phenyl)oxazol-2-yl)-2-(3-carbamoyl-2,4-difluorophenoxy)ethyl ((1-methyl-1H-pyrazol-4-yl)methyl)carbamate] | 0.25 to 1 (≈ 0.388 to 1.55 µM)
12 | NC(=O)c1c(F)ccc(OC(CNC(=O)Cc2cccnc2)c2nc(-c3ccc(C(F)(F)F)cc3)c(Br)o2)c1F (stereo not shown) [Compound 298, 3-(1-(5-bromo-4-(4-(trifluoromethyl)phenyl)oxazol-2-yl)-2-(2-(pyridin-3-yl)acetamido)ethoxy)-2,6-difluorobenzamide] | 1 to 16 (≈ 1.6 to 25.6 µM)
13 | NC(=O)c1c(F)ccc(O[C@H](CO)c2nc(-c3ccc(F)cc3)co2)c1F [Compound 278B, (R)-2,6-difluoro-3-(1-(4-(4-fluorophenyl)oxazol-2-yl)-2-hydroxyethoxy)benzamide] | > 16
14 | Cn1cccc1CNC(=O)OCC(Oc1ccc(F)c(C(N)=O)c1F)c1nc(-c2ccc(C(F)(F)F)cc2)c(Br)o1 (stereo not shown) [Compound 202, 2-(5-bromo-4-(4-(trifluoromethyl)phenyl)oxazol-2-yl)-2-(3-carbamoyl-2,4-difluorophenoxy)ethyl ((1-methyl-1H-pyrrol-2-yl)methyl)carbamate] | 0.25 to 1 (≈ 0.389 to 1.55 µM)
15 | NC(=O)c1c(F)ccc(OC(CO)c2nc(-c3ccc(Cl)nc3)c(Br)o2)c1F (stereo not shown) [Compound 241, 3-(1-(5-bromo-4-(6-chloropyridin-3-yl)oxazol-2-yl)-2-hydroxyethoxy)-2,6-difluorobenzamide] | 1 to 16 (≈ 2.11 to 33.7 µM)
16 | NC(=O)c1c(F)ccc(O[C@H](CO)c2nc(-c3ccc(OC(F)F)cc3)c(Br)o2)c1F [Compound 273B, (R)-3-(1-(5-bromo-4-(4-(difluoromethoxy)phenyl)oxazol-2-yl)-2-hydroxyethoxy)-2,6-difluorobenzamide] | < 0.25
17 | NC(=O)c1c(F)ccc(OC(CO)c2nc(-c3ccc(C(F)(F)F)cn3)c(Br)o2)c1F (stereo not shown) [Compound 79, 3-(1-(5-bromo-4-(5-(trifluoromethyl)pyridin-2-yl)oxazol-2-yl)-2-hydroxyethoxy)-2,6-difluorobenzamide] | 1 to 16 (≈ 1.97 to 31.5 µM)
18 | NC(=O)c1c(F)ccc(OC(CO)c2nc(-c3ccc(C(F)(F)F)cc3)c(C3CC3)o2)c1F (stereo not shown) [Compound 269, 3-(1-(5-cyclopropyl-4-(4-(trifluoromethyl)phenyl)oxazol-2-yl)-2-hydroxyethoxy)-2,6-difluorobenzamide] | 1 to 16 (≈ 2.14 to 34.2 µM)

Row | SMILES | MIC [µg/mL]
19 | CN(C)C(=O)CC(Oc1ccc(F)c(C(N)=O)c1F)c1nc(-c2ccc(C(F)(F)F)cc2)c(Br)o1 (stereo not shown) [Compound 88, 3-(1-(5-bromo-4-(4-(trifluoromethyl)phenyl)oxazol-2-yl)-3-(dimethylamino)-3-oxopropoxy)-2,6-difluorobenzamide] | 1 to 16 (≈ 1.78 to 28.5 µM)
20 | NC(=O)c1c(F)ccc(OC(COC(=O)NCCn2ccccc2=O)c2nc(-c3ccc(C(F)(F)F)cc3)c(Br)o2)c1F (stereo not shown) [Compound 217, 2-(5-bromo-4-(4-(trifluoromethyl)phenyl)oxazol-2-yl)-2-(3-carbamoyl-2,4-difluorophenoxy)ethyl (2-(2-oxopyridin-1(2H)-yl)ethyl)carbamate] | 0.25 to 1 (≈ 0.372 to 1.49 µM)
21 | CC(=O)OCC(OC(C)=O)C(Oc1ccc(F)c(C(N)=O)c1F)c1nc(-c2ccc(C(F)(F)F)cc2)c(Br)o1 (stereo not shown) [Compound 219, 3-(5-bromo-4-(4-(trifluoromethyl)phenyl)oxazol-2-yl)-3-(3-carbamoyl-2,4-difluorophenoxy)propane-1,2-diyl diacetate] | > 16
22 | COc1ncccc1CNC(=O)OCC(Oc1ccc(F)c(C(N)=O)c1F)c1nc(-c2ccc(C(F)(F)F)cc2)c(Br)o1 (stereo not shown) [Compound 196, 2-(5-bromo-4-(4-(trifluoromethyl)phenyl)oxazol-2-yl)-2-(3-carbamoyl-2,4-difluorophenoxy)ethyl ((2-methoxypyridin-3-yl)methyl)carbamate] | < 0.25
23 | COc1cnc(-c2csc(C(CO)Oc3ccc(F)c(C(N)=O)c3F)n2)cn1 (stereo not shown) [Compound 261, 2,6-difluoro-3-(2-hydroxy-1-(4-(5-methoxypyrazin-2-yl)thiazol-2-yl)ethoxy)benzamide] | 1 to 16 (≈ 2.45 to 39.2 µM)
24 | NC(=O)c1c(F)ccc(OC(COC(=O)N2CCNCC2)c2nc(-c3ccc(C(F)(F)F)cc3)c(Br)o2)c1F (stereo not shown) [Compound 135, 2-(5-bromo-4-(4-(trifluoromethyl)phenyl)oxazol-2-yl)-2-(3-carbamoyl-2,4-difluorophenoxy)ethyl piperazine-1-carboxylate] | 1 to 16 (≈ 1.61 to 25.8 µM)
25 | CC(=O)OCC(Oc1ccc(F)c(C(N)=O)c1F)c1nc(-c2ccc(C(F)(F)F)cn2)c(Br)o1 (stereo not shown) [Compound 78, 2-(5-bromo-4-(5-(trifluoromethyl)pyridin-2-yl)oxazol-2-yl)-2-(3-carbamoyl-2,4-difluorophenoxy)ethyl acetate] | > 16
26 | COc1ccc(-c2nc(C(CO)Oc3ccc(F)c(C(N)=O)c3F)oc2Br)c(F)c1 (stereo not shown) [Compound 234, 3-(1-(5-bromo-4-(2-fluoro-4-methoxyphenyl)oxazol-2-yl)-2-hydroxyethoxy)-2,6-difluorobenzamide] | 0.25 to 1 (≈ 0.513 to 2.05 µM)
27 | CC(Oc1ccc(F)c(C(N)=O)c1F)c1nc(-c2cnc(C(F)(F)F)nc2)c(Cl)o1 (stereo not shown) [Compound 55] | 1 to 16 (≈ 2.23 to 35.7 µM)
28 | CCc1nc([C@@H](CO)Oc2ccc(F)c(C(N)=O)c2F)oc1Br [Compound 275B, (R)-3-(1-(5-bromo-4-ethyloxazol-2-yl)-2-hydroxyethoxy)-2,6-difluorobenzamide] | > 16
29 | Cc1nccn1CCNC(=O)OCC(Oc1ccc(F)c(C(N)=O)c1F)c1nc(-c2ccc(C(F)(F)F)cc2)c(Br)o1 (stereo not shown) [Compound 190, 2-(5-bromo-4-(4-(trifluoromethyl)phenyl)oxazol-2-yl)-2-(3-carbamoyl-2,4-difluorophenoxy)ethyl (2-(2-methyl-1H-imidazol-1-yl)ethyl)carbamate] | 1 to 16 (≈ 1.52 to 24.3 µM)
30 | COc1ncc(-c2csc(C(C)Oc3ccc(F)c(C(N)=O)c3F)n2)s1 (stereo not shown) [Compound 3] | < 0.25
31 | NC(=O)c1c(F)ccc(OC(COC(=O)CCC(=O)O)c2nc(-c3ccc(F)cc3F)c(Br)o2)c1F (stereo not shown) [Compound 263, 4-(2-(5-bromo-4-(2,4-difluorophenyl)oxazol-2-yl)-2-(3 carbamoyl-2,4-difluorophenoxy)ethoxy)-4-oxobutanoic acid] | 1 to 16 (≈ 1.74 to 27.8 µM)
32 | Cc1noc(C(Oc2ccc(F)c(C(N)=O)c2F)c2nc(-c3ccc(C(F)(F)F)cc3)co2)n1 (stereo not shown) [Compound 188, 2,6-difluoro-3-((3-methyl-1,2,4-oxadiazol-5-yl)(4-(4-(trifluoromethyl)phenyl)oxazol-2-yl)methoxy)benzamide] | > 16
33 | CCCc1oc(C(COC(C)=O)Oc2ccc(F)c(C(N)=O)c2F)nc1-c1ccc(C(F)(F)F)cc1 (stereo not shown) [Compound 65, 2-(3-carbamoyl-2,4-difluorophenoxy)-2-(5-propyl-4-(4-(trifluoromethyl)phenyl)oxazol-2-yl)ethyl acetate] | 1 to 16
34 | NC(=O)c1c(F)ccc(OC(COC(=O)NCc2ccncc2)c2nc(-c3ccc(C(F)(F)F)cc3)c(Br)o2)c1F (stereo not shown) [Compound 167, 2-(5-bromo-4-(4-(trifluoromethyl)phenyl)oxazol-2-yl)-2-(3-carbamoyl-2,4-difluorophenoxy)ethyl (pyridin-4-ylmethyl)carbamate] | < 0.25

From US9511073B2, “Aromatic amides and uses thereof” (TAXIS Pharmaceuticals, Inc., priority 2011, dated 2016)
